Where “and” joins values, the source holds several entries; their conditions need not be identical. Equal entries are not always repeated. Toxic doses and inconclusive results are not listed. Rule for the calls: active = survival T/C of 150% or more; inactive = T/C below 125% in these data.
Test system: P388 leukemia ip, CD2F1 mice, survival T/C
Test: NCI In Vivo Anticancer Drug Screen. Data for tumor model P388 Leukemia (intraperitoneal) in CD2F1 (CDF1) mice
Details: endpoint: median survival time, higher = longer survival
Method in brief: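 Mice carrying the transplanted tumor received test compound or vehicle. Survival was recorded in each group, and the value is the treated-group measurement divided by that of the vehicle-treated control group.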

[1] = dose: 25.0 mg/kg/injection, schedule: Q01DX009 (ip), vehicle: water
[2] = dose: 50.0 mg/kg/injection, schedule: Q01DX009 (ip), vehicle: water
[3] = dose: 100.0 mg/kg/injection, schedule: Q01DX009 (ip), vehicle: water
[4] = dose: 12.5 mg/kg/injection, schedule: Q01DX009 (ip), vehicle: distilled water + Tween-80
[5] = dose: 25.0 mg/kg/injection, schedule: Q01DX009 (ip), vehicle: distilled water + Tween-80
[6] = dose: 50.0 mg/kg/injection, schedule: Q01DX009 (ip), vehicle: distilled water + Tween-80
[7] = dose: 60.0 mg/kg/injection, schedule: Q01DX005 (ip), vehicle: saline with Tween-80
[8] = dose: 120.0 mg/kg/injection, schedule: Q01DX005 (ip), vehicle: saline with Tween-80
[9] = dose: 240.0 mg/kg/injection, schedule: Q01DX005 (ip), vehicle: saline with Tween-80
[10] = dose: 50.0 mg/kg/injection, schedule: Q01DX005 (ip), vehicle: Klucel (hydroxypropylcellulose) (HPC)
[11] = dose: 100.0 mg/kg/injection, schedule: Q01DX005 (ip), vehicle: Klucel (hydroxypropylcellulose) (HPC)
[12] = dose: 100.0 mg/kg/injection, schedule: Q01DX005 (ip), vehicle: saline with Tween-80
[13] = dose: 200.0 mg/kg/injection, schedule: Q01DX005 (ip), vehicle: saline with Tween-80

Measured: T/C

CN(C)CCSc1cc(O)c2c(c1O)C(=O)c1ccccc1C2=O
inactive: dose: 12.5 mg/kg/injection, schedule: Q04DX003 (ip), vehicle: water 107 % of control | [1] 102 % of control | dose: 25.0 mg/kg/injection, schedule: Q04DX003 (ip), vehicle: water 98 % of control | [2] 103 % of control | dose: 50.0 mg/kg/injection, schedule: Q04DX003 (ip), vehicle: water 102 % of control | [3] 102 % of control | dose: 100.0 mg/kg/injection, schedule: Q04DX003 (ip), vehicle: water 102 % of control | dose: 200.0 mg/kg/injection, schedule: Q01DX009 (ip), vehicle: water 97 % of control | dose: 200.0 mg/kg/injection, schedule: Q04DX003 (ip), vehicle: water 118 % of control

CNC(=O)OCc1c(C)oc(-c2ccccc2)c1COC(=O)NC
inactive: [4] 93 % of control | [5] 90 % of control | [6] 100 % of control

Cc1c(-c2ccccc2)nnn1-c1ccc(F)cc1F
inactive: [7] 101 % of control | [8] 99 % of control | [9] 92 % of control

CCOC(=O)C1Cc2c([nH]c(=O)[nH]c2=O)OC1c1ccc([N+](=O)[O-])cc1 (stereo unspecified)
inactive: [10] 97 % of control | [11] 89 % of control | dose: 200.0 mg/kg/injection, schedule: Q01DX005 (ip), vehicle: Klucel (hydroxypropylcellulose) (HPC) 94 % of control

CC(=O)Nc1ccc2c(c1)/C(=C/c1ccc(N(C)C)cc1)c1ccccc1-2
inactive: dose: 25.0 mg/kg/injection, schedule: Q01DX009 (ip), vehicle: Klucel (hydroxypropylcellulose) (HPC) 91 % of control | dose: 50.0 mg/kg/injection, schedule: Q01DX009 (ip), vehicle: Klucel (hydroxypropylcellulose) (HPC) 96 % of control | dose: 100.0 mg/kg/injection, schedule: Q01DX009 (ip), vehicle: Klucel (hydroxypropylcellulose) (HPC) 96 % of control | dose: 200.0 mg/kg/injection, schedule: Q01DX009 (ip), vehicle: Klucel (hydroxypropylcellulose) (HPC) 100 % of control

O=[n+]1c2ccccc2n([O-])c2cc(Cl)ccc21
active: dose: 50.0 mg/kg/injection, schedule: Q01DX009 (ip), vehicle: saline with Tween-80 150 % of control | dose: 100.0 mg/kg/injection, schedule: Q01DX009 (ip), vehicle: saline with Tween-80 154 % of control and 174 % of control
inactive: dose: 25.0 mg/kg/injection, schedule: Q04DX003 (ip), vehicle: saline with Tween-80 112 % of control | dose: 50.0 mg/kg/injection, schedule: Q04DX003 (ip), vehicle: saline with Tween-80 112 % of control | dose: 100.0 mg/kg/injection, schedule: Q04DX003 (ip), vehicle: saline with Tween-80 107 % of control | dose: 200.0 mg/kg/injection, schedule: Q04DX003 (ip), vehicle: saline with Tween-80 114 % of control | dose: 400.0 mg/kg/injection, schedule: Q04DX003 (ip), vehicle: saline with Tween-80 114 % of control

C/C=C/c1cc2n(c1)C(=O)c1cc(OC3OC(C)C(NC)C(C)(O)C3O)c(C)c(O)c1NC2O (stereo unspecified)
active: dose: 16.0 micrograms/kg/injection, schedule: Q01DX001 (ip), vehicle: DMSO 173 % of control | dose: 16.0 micrograms/kg/injection, schedule: Q03DX003 (ip), vehicle: DMSO 180 % of control
inactive: dose: 0.02 mg/kg/injection, schedule: Q04DX003 (ip), vehicle: saline 94 % of control | dose: 0.04 mg/kg/injection, schedule: Q04DX003 (ip), vehicle: saline 89 % of control | dose: 0.3 micrograms/kg/injection, schedule: Q03DX003 (ip), vehicle: DMSO 110 % of control | dose: 1.0 micrograms/kg/injection, schedule: Q01DX001 (ip), vehicle: DMSO 120 % of control | dose: 1.0 micrograms/kg/injection, schedule: Q01DX009 (ip), vehicle: saline 100 % of control | dose: 4.0 micrograms/kg/injection, schedule: Q01DX009 (ip), vehicle: saline 117 % of control | dose: 4.0 micrograms/kg/injection, schedule: Q04DX003 (ip), vehicle: DMSO 120 % of control | dose: 16.0 micrograms/kg/injection, schedule: Q04DX003 (ip), vehicle: DMSO 123 % of control | dose: 32.0 micrograms/kg/injection, schedule: Q01DX001 (ip), vehicle: DMSO 95 % of control

O=[N+]([O-])c1cccn2nc(C3OC(CO)C(O)C3O)nc12 (stereo unspecified)
inactive: dose: 6.25 mg/kg/injection, schedule: Q01DX009 (ip), vehicle: water 109 % of control | dose: 12.5 mg/kg/injection, schedule: Q01DX009 (ip), vehicle: water 104 % of control | [1] 113 % of control | [2] 98 % of control | [3] 109 % of control

N#Cc1c(-c2ccccc2)nc2n1CCS2
inactive: dose: 100.0 mg/kg/injection, schedule: Q01DX001 (ip), vehicle: Klucel (hydroxypropylcellulose) (HPC) 102 % of control | dose: 200.0 mg/kg/injection, schedule: Q01DX001 (ip), vehicle: Klucel (hydroxypropylcellulose) (HPC) 100 % of control | dose: 400.0 mg/kg/injection, schedule: Q01DX001 (ip), vehicle: Klucel (hydroxypropylcellulose) (HPC) 100 % of control

COC(OC)C(=O)OC(C)(C)C
inactive: [7] 103 % of control | [8] 100 % of control | [9] 101 % of control

O=S(=O)(CI)OCCCl
inactive: [10] 102 % of control | [11] 110 % of control

C=CC(=NC(C)C)Nc1ccccc1
inactive: dose: 1.56 mg/kg/injection, schedule: Q01DX009 (ip), vehicle: saline 112 % of control | dose: 3.12 mg/kg/injection, schedule: Q01DX009 (ip), vehicle: saline 105 % of control | dose: 6.25 mg/kg/injection, schedule: Q01DX009 (ip), vehicle: saline 104 % of control and 113 % of control

COC(=O)C(/C=[N+](\[O-])C1CCCCC1)=C(\C=[N+](/[O-])C1CCCCC1)C(=O)OC
inactive: [7] 102 % of control | [8] 87 % of control | [9] 91 % of control

Oc1ccc2ccccc2c1/C=N/NC(=S)N/N=C/c1c(O)ccc2ccccc12
inactive: dose: 0.38 mg/kg/injection, schedule: Q01DX005 (ip), vehicle: saline with Tween-80 97 % of control | dose: 0.75 mg/kg/injection, schedule: Q01DX005 (ip), vehicle: saline with Tween-80 97 % of control | dose: 1.5 mg/kg/injection, schedule: Q01DX005 (ip), vehicle: saline with Tween-80 90 % of control and 92 % of control | dose: 6.0 mg/kg/injection, schedule: Q01DX005 (ip), vehicle: saline with Tween-80 86 % of control | [12] 96 % of control | [13] 116 % of control

COC1OC2COC(c3ccccc3)OC2C(N)C1O (stereo unspecified)
inactive: dose: 50.0 mg/kg/injection, schedule: Q01DX005 (ip), vehicle: saline with Tween-80 106 % of control | [12] 101 % of control | [13] 104 % of control

CN(C)C1=NC(NCc2ccccc2)(N(C)C)OC(N(C)C)=N1 (stereo unspecified)
inactive: dose: 25.0 mg/kg/injection, schedule: Q01DX005 (ip), vehicle: saline 107 % of control | dose: 50.0 mg/kg/injection, schedule: Q01DX005 (ip), vehicle: saline 96 % of control

CN(C(=O)c1cc2c(cc1Br)OCO2)c1cccc2ccccc12
inactive: [4] 98 % of control | [5] 103 % of control | [6] 103 % of control | dose: 100.0 mg/kg/injection, schedule: Q01DX009 (ip), vehicle: distilled water + Tween-80 95 % of control | dose: 200.0 mg/kg/injection, schedule: Q01DX009 (ip), vehicle: distilled water + Tween-80 100 % of control

C=CCN(CC=C)P(=O)(N1CC1C)N1CC1C (stereo unspecified)
inactive: dose: 3.75 mg/kg/injection, schedule: Q01DX009 (ip), vehicle: water 118 % of control | dose: 5.0 mg/kg/injection, schedule: Q01DX009 (ip), vehicle: saline 97 % of control
active: dose: 1.65 mg/kg/injection, schedule: Q01DX009 (ip), vehicle: water 166 % of control | dose: 2.5 mg/kg/injection, schedule: Q01DX009 (ip), vehicle: water 157 % of control

O=C(S[Si](c1ccccc1)(c1ccccc1)c1ccccc1)c1ccccc1
inactive: dose: 50.0 mg/kg/injection, schedule: Q01DX009 (ip), vehicle: saline 102 % of control | dose: 100.0 mg/kg/injection, schedule: Q01DX009 (ip), vehicle: saline 110 % of control

Reference: PubChem BioAssay AID330 (DTP/NCI, 2004)
